From the supplement of paper PMC12533247

Tests used:
[1] = system: HSV-1 K26-GFP infected 3D skin equivalent; experiment: % activity on HSV-1 GFP signal (0 = infected DMSO control, -100 = uninfected control); higher = higher signal (negative = inhibition / toxicity); conditions: time (h post infection): 48
Experimental: (§1)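 Triplicate dose-response (0.04 to 10 uM) of 11 top compounds in 3D bioprinted skin equivalents (submerged and ALI models) infected with GFP-HSV-1 K26 at MOI 0.1 and fixed at 48 hpi. GFP (virus) and tdTomato (fibroblast viability) signals are normalised to per-plate controls.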

[2] = system: HSV-1 K26-GFP infected 3D skin equivalent; experiment: % change of tdTomato fibroblast signal relative to infected DMSO control; higher = higher signal (negative = inhibition / toxicity); conditions: time (h post infection): 48
Experimental: as §1

[3] = system: HSV-1 K26-GFP infected primary human skin cells; experiment: % change of HSV-1 GFP signal vs untreated infected cells; higher = less antiviral inhibition; conditions: cell type: primary dermal fibroblasts, time (h post infection): 48
Experimental: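 2D primary donor-derived dermal fibroblasts infected with GFP-HSV-1 K26 at MOI 1, treated 1 h later with compound dilutions and read at 48 hpi on IncuCyte. GFP integrated intensity is normalised to mock-infected and untreated infected wells (% change; -100 = full inhibition).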

[4] = system: HSV-1 K26-GFP infected primary human skin cells; experiment: as above
Experimental: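 2D primary donor-derived keratinocytes (read at 20 hpi) and donor-matched dermal fibroblasts (read at 48 hpi) infected with GFP-HSV-1 K26 at MOI 1 and treated 1 h later with compound dilutions. IncuCyte GFP integrated intensity is normalised by subtracting mock-infected wells and dividing by untreated infected wells, shown as % change (-100 = full inhibition).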

Cc1cccc(C)c1N(CC(=O)Nc1ccc(-c2ncon2)cc1)C(=O)C1CCS(=O)(=O)CC1 [Amenamevir]
Conditions	% activity on HSV-1 GFP signal [%]	% change of HSV-1 GFP signal [%]	% change of tdTomato fibroblast signal [%]
[1], 0.041152 µM, model: ALI	-20.3	–	–
[1], 0.041152 µM, model: submerged	2.22	–	–
[1], 0.123457 µM, model: ALI	-40.4	–	–
[1], 0.123457 µM, model: submerged	-17.6	–	–
[1], 0.37037 µM, model: ALI	-99.3	–	–
[1], 0.37037 µM, model: submerged	-61.9	–	–
[1], 1.111111 µM, model: ALI	-108	–	–
[1], 1.111111 µM, model: submerged	-84.6	–	–
[1], 3.33333 µM, model: ALI	-107	–	–
[1], 3.33333 µM, model: submerged	-89.2	–	–
[1], 10 µM, model: ALI	-112	–	–
[1], 10 µM, model: submerged	-85.3	–	–
[2], 0.041152 µM, model: ALI	–	–	0.354
[2], 0.041152 µM, model: submerged	–	–	12
[2], 0.123457 µM, model: ALI	–	–	-2.14
[2], 0.123457 µM, model: submerged	–	–	-5.09
[2], 0.37037 µM, model: ALI	–	–	-5.49
[2], 0.37037 µM, model: submerged	–	–	-8.61
[2], 1.111111 µM, model: ALI	–	–	-6.26
[2], 1.111111 µM, model: submerged	–	–	-5
[2], 3.33333 µM, model: ALI	–	–	-5.93
[2], 3.33333 µM, model: submerged	–	–	2.99
[2], 10 µM, model: ALI	–	–	-8.92
[2], 10 µM, model: submerged	–	–	5.91
[3], 0.001 µM, donor: 3	–	-1.82	–
[3], 0.001 µM, donor: 4	–	-1.13	–
[3], 0.003 µM, donor: 3	–	-1.99	–
[3], 0.003 µM, donor: 4	–	-8.69	–
[3], 0.0091 µM, donor: 3	–	-11	–
[3], 0.0091 µM, donor: 4	–	-24.4	–
[3], 0.0274 µM, donor: 3	–	-15.9	–
[3], 0.0274 µM, donor: 4	–	-37.9	–
[3], 0.0823 µM, donor: 3	–	-29.7	–
[3], 0.0823 µM, donor: 4	–	-61.9	–
[3], 0.2469 µM, donor: 3	–	-63.1	–
[3], 0.2469 µM, donor: 4	–	-76.9	–
[3], 0.7407 µM, donor: 3	–	-89.6	–
[3], 0.7407 µM, donor: 4	–	-84.4	–
[3], 2.2222 µM, donor: 3	–	-98.8	–
[3], 2.2222 µM, donor: 4	–	-94.5	–
[3], 6.6667 µM, donor: 3	–	-99.52	–
[3], 6.6667 µM, donor: 4	–	-99	–
[3], 20 µM, donor: 3	–	-99.36	–
[3], 20 µM, donor: 4	–	-99.59	–

% change of HSV-1 GFP signal [%], [4]
Conditions	0.001 µM	0.003 µM	0.0091 µM	0.0274 µM	0.0823 µM	0.2469 µM	0.7407 µM	2.2222 µM	6.6667 µM	20 µM
cell type: primary dermal fibroblasts, donor: 5, time (h post infection): 48	-4.89	-8.89	-13.3	-23.6	-42.3	-59.7	-74.9	-91.3	-98.98	-99.775
cell type: primary keratinocytes, donor: 3, time (h post infection): 20	13.9	12.5	4.38	0.743	-11.4	-38.9	-51.9	-68	-78.6	-83.4
cell type: primary keratinocytes, donor: 4, time (h post infection): 20	-3.16	-0.75	-11.8	-15.3	-42.6	-80.2	-87.1	-93.7	-95.2	-99.17
cell type: primary keratinocytes, donor: 5, time (h post infection): 20	1.08	2.94	-1.03	-12.8	-31.3	-49.2	-67.5	-93.4	-97.9	-99.54

CC(=O)O[C@H]1C[C@H](O[C@H]2[C@@H](O)C[C@H](O[C@H]3[C@@H](O)C[C@H](O[C@H]4CC[C@@]5(C)[C@H](CC[C@@H]6[C@@H]5C[C@@H](O)[C@]5(C)[C@@H](C7=CC(=O)OC7)CC[C@]65O)C4)O[C@@H]3C)O[C@@H]2C)O[C@H](C)[C@H]1O[C@@H]1O[C@H](CO)[C@@H](O)[C@H](O)[C@H]1O [Lanatoside C]
Conditions	% activity on HSV-1 GFP signal, [1] [%]	% change of tdTomato fibroblast signal, [2] [%]
0.041152 µM, model: ALI	-34.1	2.37
0.041152 µM, model: submerged	-5.47	-1.16
0.123457 µM, model: ALI	-95.2	5.13
0.123457 µM, model: submerged	-72.7	-17.7
0.37037 µM, model: ALI	-105	-2.13
0.37037 µM, model: submerged	-99.6	-23.6
1.111111 µM, model: ALI	-104	0.581
1.111111 µM, model: submerged	-103	-37.1
3.33333 µM, model: ALI	-104	-5.14
3.33333 µM, model: submerged	-104	-52.9
10 µM, model: ALI	-99.5	-4.98
10 µM, model: submerged	-107	-56.04

% change of HSV-1 GFP signal [%], [4]
Conditions	0.001 µM	0.003 µM	0.0091 µM	0.0274 µM	0.0823 µM	0.2469 µM	0.7407 µM	2.2222 µM	6.6667 µM	20 µM
cell type: primary dermal fibroblasts, donor: 5, time (h post infection): 48	-2.98	-9.39	-4.44	-5.88	-21.6	-99.19	-99.81	-99.972	-99.993	-99.985
cell type: primary keratinocytes, donor: 3, time (h post infection): 20	4.49	6.12	-2.17	7.86	-16.9	-96	-99.91	-99.948	-99.8	-99.941
cell type: primary keratinocytes, donor: 4, time (h post infection): 20	-0.192	-0.172	-18.5	-9.65	-38.4	-79.3	-100.1	-100.1	-100.1	-100.07
cell type: primary keratinocytes, donor: 5, time (h post infection): 20	12.3	12.4	10	-3.35	-66	-99.66	-99.948	-99.893	-99.85	-99.904

Nc1ccn([C@@H]2O[C@H](CO)[C@@H](O)C2(F)F)c(=O)n1 [Gemcitabine]
Conditions	% activity on HSV-1 GFP signal [%]	% change of HSV-1 GFP signal [%]	% change of tdTomato fibroblast signal [%]
[1], 0.041152 µM, model: ALI	-11.7	–	–
[1], 0.041152 µM, model: submerged	-9.74	–	–
[1], 0.123457 µM, model: ALI	-37.9	–	–
[1], 0.123457 µM, model: submerged	-26.5	–	–
[1], 0.37037 µM, model: ALI	-102	–	–
[1], 0.37037 µM, model: submerged	-92.4	–	–
[1], 1.111111 µM, model: ALI	-106	–	–
[1], 1.111111 µM, model: submerged	-97	–	–
[1], 3.33333 µM, model: ALI	-99.4	–	–
[1], 3.33333 µM, model: submerged	-99	–	–
[1], 10 µM, model: ALI	-102	–	–
[1], 10 µM, model: submerged	-99.8	–	–
[2], 0.041152 µM, model: ALI	–	–	-3.97
[2], 0.041152 µM, model: submerged	–	–	-1.22
[2], 0.123457 µM, model: ALI	–	–	-3.65
[2], 0.123457 µM, model: submerged	–	–	-6.59
[2], 0.37037 µM, model: ALI	–	–	-3.96
[2], 0.37037 µM, model: submerged	–	–	-13.9
[2], 1.111111 µM, model: ALI	–	–	-5.76
[2], 1.111111 µM, model: submerged	–	–	-17.6
[2], 3.33333 µM, model: ALI	–	–	-10.9
[2], 3.33333 µM, model: submerged	–	–	-22.7
[2], 10 µM, model: ALI	–	–	-5.25
[2], 10 µM, model: submerged	–	–	-28.4
[3], 0.001 µM, donor: 3	–	2.63	–
[3], 0.003 µM, donor: 3	–	2.52	–
[3], 0.003 µM, donor: 4	–	-2.11	–
[3], 0.0091 µM, donor: 3	–	1.9	–
[3], 0.0091 µM, donor: 4	–	-1.82	–
[3], 0.0274 µM, donor: 3	–	-32.1	–
[3], 0.0274 µM, donor: 4	–	-16.7	–
[3], 0.0823 µM, donor: 3	–	-96.7	–
[3], 0.0823 µM, donor: 4	–	-78	–
[3], 0.2469 µM, donor: 3	–	-99.824	–
[3], 0.2469 µM, donor: 4	–	-96.4	–
[3], 0.7407 µM, donor: 3	–	-99.797	–
[3], 0.7407 µM, donor: 4	–	-99.75	–
[3], 2.2222 µM, donor: 3	–	-99.74	–
[3], 2.2222 µM, donor: 4	–	-99.81	–
[3], 6.6667 µM, donor: 3	–	-99.76	–
[3], 6.6667 µM, donor: 4	–	-99.83	–
[3], 20 µM, donor: 3	–	-99.73	–
[3], 20 µM, donor: 4	–	-99.907	–

% change of HSV-1 GFP signal [%], [4]
Conditions	0.001 µM	0.003 µM	0.0091 µM	0.0274 µM	0.0823 µM	0.2469 µM	0.7407 µM	2.2222 µM	6.6667 µM	20 µM
cell type: primary dermal fibroblasts, donor: 5, time (h post infection): 48	-5.06	-5.8	-2.35	-8.4	-70.4	-97.2	-99.78	-99.91	-99.93	-99.87
cell type: primary keratinocytes, donor: 3, time (h post infection): 20	29.8	37.4	36.1	17.1	-25.6	-75.6	-97.4	-98.37	-99	-99.06
cell type: primary keratinocytes, donor: 4, time (h post infection): 20	9.34	0.292	4.89	-17.4	-50.7	-86.4	-97.6	-99.732	-99.606	-99.72
cell type: primary keratinocytes, donor: 5, time (h post infection): 20	6.72	7.7	7.12	9.71	-23	-73.3	-94.7	-99	-99.39	-99.6
